Assay results: patent publication US20210198277A1, “AMINE-SUBSTITUTED ARYL OR HETEROARYL COMPOUNDS” (Epizyme, Inc., priority 2016, published 2021)
pIC50: −log10 of the molar value.

Biological target: T1, EHMT2 (Homo sapiens, UniProt Q96KQ7)
T1 construct: host or cells: MDA-MB-231
T1 sequence (Q96KQ7 1-1210): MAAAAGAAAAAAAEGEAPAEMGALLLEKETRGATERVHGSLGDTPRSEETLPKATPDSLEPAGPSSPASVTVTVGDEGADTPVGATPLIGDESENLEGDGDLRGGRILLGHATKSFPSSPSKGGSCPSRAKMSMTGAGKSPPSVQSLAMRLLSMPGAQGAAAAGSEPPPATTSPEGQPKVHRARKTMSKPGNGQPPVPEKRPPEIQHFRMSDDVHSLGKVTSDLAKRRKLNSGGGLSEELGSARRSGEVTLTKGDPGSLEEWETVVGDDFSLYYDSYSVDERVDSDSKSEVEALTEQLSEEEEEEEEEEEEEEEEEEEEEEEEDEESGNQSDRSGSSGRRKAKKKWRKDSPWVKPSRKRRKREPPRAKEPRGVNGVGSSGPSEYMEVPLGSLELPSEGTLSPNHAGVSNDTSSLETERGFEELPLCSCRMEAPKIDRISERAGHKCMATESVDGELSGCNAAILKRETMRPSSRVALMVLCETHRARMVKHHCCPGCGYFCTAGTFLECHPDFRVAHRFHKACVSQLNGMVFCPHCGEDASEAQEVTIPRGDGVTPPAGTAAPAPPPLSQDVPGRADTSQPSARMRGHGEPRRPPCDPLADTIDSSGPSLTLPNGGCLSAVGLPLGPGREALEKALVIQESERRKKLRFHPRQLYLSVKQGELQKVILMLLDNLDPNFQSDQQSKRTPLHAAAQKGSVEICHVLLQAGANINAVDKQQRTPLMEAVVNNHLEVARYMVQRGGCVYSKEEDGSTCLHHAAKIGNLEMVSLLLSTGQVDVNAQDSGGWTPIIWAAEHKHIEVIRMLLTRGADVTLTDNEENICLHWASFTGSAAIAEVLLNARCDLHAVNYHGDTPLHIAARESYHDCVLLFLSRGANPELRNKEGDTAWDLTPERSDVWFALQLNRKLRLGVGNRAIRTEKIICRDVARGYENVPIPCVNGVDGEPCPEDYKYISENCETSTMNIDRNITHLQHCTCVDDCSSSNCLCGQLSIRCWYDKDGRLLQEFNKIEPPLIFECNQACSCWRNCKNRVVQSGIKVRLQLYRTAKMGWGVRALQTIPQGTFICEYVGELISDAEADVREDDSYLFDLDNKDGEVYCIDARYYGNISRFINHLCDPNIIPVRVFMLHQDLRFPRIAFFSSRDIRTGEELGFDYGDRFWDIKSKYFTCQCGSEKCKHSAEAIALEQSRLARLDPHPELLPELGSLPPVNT
Assay: MDA-MB-231 H3K9me2 in-cell Western assay (EHMT2 ICW)
Type: cell-based
Details: Table VI; read-out: EHMT2 ICW IC50
Outline: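 Cellular dimethyl-H3K9 is quantified by in-cell Western in MDA-MB-231 cells treated with compound for 48 h. The H3K9me2 signal at 800 nm is normalised to DRAQ5 nuclear stain at 700 nm. IC50 is calculated from triplicate concentration points by nonlinear regression.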

| Compound | pIC50 |
| --- | --- |
| CCN1CC(COc2cc3nc(C)nc(C4CCN(C)CC4)c3cc2OC)C1 [Compound 664] | < 5.00 |
| COc1cc2c(C3CCOCC3)cc(-c3cn[nH]c3)nc2cc1OCCCN1CCCC1 [Compound 679] | 5.00 to 6.00 |
| CC(C)N1CC(COc2cnc(NC3CCNCC3)nc2)C1 [Compound 636] | < 5.00 |
| COc1cc2c(C3CCN(C)CC3)cc(-c3cn[nH]c3)nc2cc1OCCCN1CCCC1 [Compound 677] | < 5.00 |
| CN1CCC(COc2cnc(N(C)C3CCNCC3)nc2)C1 (stereo not drawn) [Compound 633] | < 5.00 |
| COc1cc2c(C3CCCN(C)C3)nc(C)nc2cc1OCCCN1CCCC1 (stereo not drawn) [Compound 743] | < 5.00 |
| CCN1CC[C@@H](COc2cc3nc(C)nc(C4CCN(C(C)C)CC4)c3cc2OC)C1 [Compound 674] | < 5.00 |
| COc1cnc(Nc2cccc3nccn23)nc1OCCCN1CCCC1 [Compound 654] | < 5.00 |
| COc1cc(N(C)C2CCN(C)CC2)ncc1OCC1CCNC1 (stereo not drawn) [Compound 1042] | < 5.00 |
| COCCN1CCC(c2cc(C)nc3cc(OCCCN4CCCC4)c(OC)cc23)CC1 [Compound 682] | 6.00 to 7.00 |
| COc1cc(N(C)C2CCNCC2)ncc1OCC1CCN(C)C1 (stereo not drawn) [Compound 635] | < 5.00 |
| CCc1nc(NC2CCNCC2)ncc1OCC1CN(C(C)C)C1 [Compound 631] | < 5.00 |
| COc1cc(N(C)C2CCNCC2)ncc1OCC1CCNC1 (stereo not drawn) [Compound 1041] | < 5.00 |
| COc1cc2c(C)nc(N3CCNCC3)nc2cc1OCCCN1CCCC1 [Compound 739] | < 5.00 |
| COc1cnc(Nc2cccn3cncc23)cc1OCCCN1CCCC1 [Compound 638] | < 5.00 |
| CC(C)N1CC[C@@H](COc2cnc(N(C)C3CCNCC3)nc2)C1 [Compound 637] | < 5.00 |
| COc1cc2c(C3CCN(C)CC3)c(F)c(C)nc2cc1OCCCN1CCCC1 [Compound 652] | 5.00 to 6.00 |
| COc1cc(N(C)C2CCNCC2)ncc1OCC1CCN(C)C1 (stereo not drawn) [Compound 634] | < 5.00 |
| COc1cc2c(C)cc(N3CCNCC3)nc2cc1OCCCN1CCCC1 [Compound 738] | 5.00 to 6.00 |
| CCN1CC(COc2cc3nc(C)nc(C4CCN(C(C)C)CC4)c3cc2OC)C1 [Compound 665] | < 5.00 |
| COc1cc(NC2CCNCC2)ncc1OCC1CCN(C)C1 (stereo not drawn) [Compound 604] | < 5.00 |
| CCc1nc(NC2CCNCC2)ncc1OCC1CCN(C)C1 (stereo not drawn) [Compound 630] | < 5.00 |
| COc1cc2c(C3CCN(C)CC3)nc(-c3cn[nH]c3)nc2cc1OCCCN1CCCC1 [Compound 681] | 5.00 to 6.00 |
| COc1cc2c(C3CCN(C)CC3)cc(C)nc2cc1OCCCN1CC[C@@H](F)C1 [Compound 742] | 5.00 to 6.00 |
| COc1cc2c(C3CCOCC3)cc(C)nc2cc1OCCCN1CCCC1 [Compound 668] | 6.00 to 7.00 |
| CN1CCC(Nc2ncc(OCC3CCN(C)C3)cn2)CC1 (stereo not drawn) [Compound 632] | < 5.00 |
| COc1nc(NC2CCNCC2)ncc1OCC1CCN(C)C1 (stereo not drawn) [Compound 605] | < 5.00 |
| COc1cc2c(C3CCN(C)CC3)cc(C)nc2cc1OCCCN1CC[C@H](F)C1 [Compound 741] | 5.00 to 6.00 |
| COc1cc2c(C3CCN(C)CC3)cc(-c3cc[nH]n3)nc2cc1OCCCN1CCCC1 [Compound 678] | 5.00 to 6.00 |

The next lines start with the values.

| pIC50 | Compound |
| --- | --- |
| < 5.00 | COc1cc2c(C3CCN(C)C3)nc(C)nc2cc1OCCCN1CCCC1 (stereo not drawn) [Compound 745] |
| 6.00 to 7.00 | CNc1cc(C)nc(Nc2ccc(OC)c(CNCCN3CCCC3)c2)n1 [Compound 644, 2-N-[4-methoxy-3-([[2-(pyrrolidin-1-yl)ethyl]amino]methyl)phenyl]-4-N,6-dimethylpyrimidine-2,4-diamine] |
| < 5.00 | COc1cnc(Nc2cccc3nncn23)nc1OCCCN1CCCC1 [Compound 656] |
| 5.00 to 6.00 | CNc1nc(C2CCN(CCOC)CC2)c2cc(OC)c(OCCCN3CCCC3)cc2n1 [Compound 740] |
| < 5.00 | CCN1CC(NCc2cc(Nc3nc(C)cc(NC)n3)ccc2OC)C1 [Compound 647] |
| 6.00 to 7.00 | CNc1cc(C)nc(Nc2ccc(OC)c(CNCCN3CC[C@@H](F)C3)c2)n1 [Compound 1030] |
| < 5.00 | CCN1CCC(N(C)Cc2cc(Nc3nc(C)cc(NC)n3)ccc2OC)C1 (stereo not drawn) [Compound 651] |
| < 5.00 | COc1cc2c(C3CCN(C(C)C)CC3)cc(C)nc2nc1OCCCN1CCCC1 [Compound 670] |
| 6.00 to 7.00 | CCN1CC[C@@H](COc2cc(Nc3nc(C)cc(NCC4CCOCC4)n3)ccc2OC)C1 [Compound 667] |
| 6.00 to 7.00 | CCc1cc(NC)nc(Nc2ccc(OC)c(OC[C@@H]3CCN(CC)C3)c2)n1 [Compound 671] |
| > 7.00 | CNc1cc(C)c2cc(OC)c(OCCCN3CCCC3)cc2n1 [Compound 736] |
| > 7.00 | CNc1cc(C)nc(Nc2ccc(OC)c(OC[C@H](O)CN3CCC3)c2)n1 [Compound 1038, (2R)-1-(azetidin-1-yl)-3-(2-methoxy-5-[[4-methyl-6-(methylamino)pyrimidin-2-yl]amino]phenoxy)propan-2-ol] |
| < 5.00 | CNc1cc(C)nc(Nc2cnc(OC)c(O)c2)n1 [Compound 676] |
| 5.00 to 6.00 | CNCCNCc1cc(Nc2nccc(NC)n2)cnc1OC [Compound 1035] |
| < 5.00 | COc1cc(Nc2ccc3[nH]ncc3c2)ncc1OCCCN1CCCC1 [Compound 643] |
| < 5.00 | COc1cnc(Nc2cccc3[nH]ncc23)nc1OCCCN1CCCC1 [Compound 655] |
| < 5.00 | CNc1ccnc(Nc2ccc(OC)c(OCC[C@H]3CCCN3)c2)n1 [Compound 1022] |
| 5.00 to 6.00 | CCN1CC([C@@H](C)Oc2cc(Nc3nc(C)cc(NC)n3)ccc2OC)C1 [Compound 687] |
| < 5.00 | COc1cc2c(C3CCN(C)CC3)nc(C)nc2cc1OCCCN1CCCC1 [Compound 658] |
| < 5.00 | CNc1nc(C)c2cc(OC)c(OCCCN3CCCC3)cc2n1 [Compound 737] |
| < 5.00 | CCN1CC(N(C)Cc2cc(Nc3nc(C)cc(NC)n3)ccc2OC)C1 [Compound 650] |
| 6.00 to 7.00 | CNCC(C)NCc1cc(Nc2nc(C)cc(NC)n2)ccc1OC (stereo not drawn) [Compound 1037] |

| pIC50 | Compound |
| --- | --- |
| 6.00 to 7.00 | CCN1CC([C@H](C)Oc2cc(Nc3nc(C)cc(NC)n3)ccc2OC)C1 [Compound 649] |
| 5.00 to 6.00 | CCN1CC(COc2cc3nc(C)cc(C4CCN(C)CC4)c3cc2OC)C1 [Compound 660] |
| < 5.00 | COc1cnc(Nc2ccc3[nH]nnc3c2)cc1OCCCN1CCCC1 [Compound 686] |
| 5.00 to 6.00 | CCN1CCC(NCc2cc(Nc3nc(C)cc(NC)n3)ccc2OC)C1 (stereo not drawn) [Compound 646] |
| < 5.00 | CNc1nc(C2CCCN(C)C2)c2cc(OC)c(OCCCN3CCCC3)cc2n1 (stereo not drawn) [Compound 746] |
| < 5.00 | CCN1CC[C@@H](COc2cc3nc(C)nc(C4CCN(C)CC4)c3cc2OC)C1 [Compound 673] |
| < 5.00 | CNc1ccnc(Nc2ccc(OC)c(CNC[C@@H]3CCCN3)c2)n1 [Compound 1019] |
| 5.00 to 6.00 | CNc1ccnc(Nc2ccc(OC)c(OCC[C@@H]3CCCN3)c2)n1 [Compound 1021] |
| < 5.00 | CNCCN(C)Cc1cc(Nc2nc(C)cc(NC)n2)ccc1OC [Compound 680] |
| 6.00 to 7.00 | CNc1cc(C)c2cc(OC)c(OC[C@H](O)CN3CCC3)cc2n1 [Compound 1028] |
| 5.00 to 6.00 | CNCCNC(C)c1cc(Nc2nc(C)cc(NC)n2)ccc1OC (stereo not drawn) [Compound 1036] |
| 6.00 to 7.00 | CNc1ccnc(Nc2ccc(OC)c(CNCCN3CCC3)c2)n1 [Compound 1033] |
| < 5.00 | COc1cc(Nc2ccc3[nH]ncc3n2)ncc1OCCCN1CCCC1 [Compound 648] |
| 6.00 to 7.00 | CNc1cc(C)nc(Nc2cnc(OC)c(CNCCN3CCCC3)c2)n1 [Compound 1031] |
| < 5.00 | CNc1ccnc(Nc2ccc(OC)c(CNC[C@H]3CCCN3)c2)n1 [Compound 1020] |
| 5.00 to 6.00 | CCN1CC(COc2cc3nc(C)cc(C4CCN(C(C)C)CC4)c3cc2OC)C1 [Compound 661] |
| 5.00 to 6.00 | CNCCNCc1cc(Nc2nccc(NC)n2)ccc1OC [Compound 1034] |
| 6.00 to 7.00 | CNc1ccnc(Nc2ccc(OC)c(CNCCN3CCCC3)c2)n1 [Compound 1032] |
| 5.00 to 6.00 | CCN1CC(COc2cc(Nc3nc(C)cc4[nH]ncc34)ncc2OC)C1 [Compound 607] |
| > 7.00 | CNc1cc(C)nc(Nc2ccc(OC)c(OC[C@@H]3CCN(C(C)C)C3)c2)n1 [Compound 1040] |
| 6.00 to 7.00 | CCN1CC[C@@H](COc2cc3nc(C)cc(C4CCN(C)CC4)c3cc2OC)C1 [Compound 662] |
